Data: patent US20080076760A1, “2,3,4,5-TETRAHYDRO-1H-1,5-BENZODIAZEPINE DERIVATIVE AND MEDICINAL COMPOSITION” (priority 2004, published 2008)

Assays:
[1] = target: human vasopressin V2 receptor (Homo sapiens, UniProt P30518); assay: Receptor binding study, [3H]AVP displacement on CHO cell membranes, human V2; conditions: [3H]AVP displacement, CHO cell membrane, 25° C., one hour; read-out: Human V2 Ki
Experimental: Preparation of Chinese hamster ovary (Cho) cell which expresses human vasopressin receptor subtype and production of membrane sample of the cell was conducted according to the method of Tahara et al. (Br. J. Pharmacol., 125, 1463-1470, 1998).
(§1) (ii) Receptor Binding Study
In saturation binding experiment, the membrane sample and [^3H]AVP of several concentrations (0.125 nM to 4.0 nM) were mixed and incubated in microplate wells. In displacement experiment, [^3H]AVP of constant concentrations (0.5 nM to 1.0 nM) and the membrane sample were mixed with Compound A of several concentrations, and incubation was performed. Assay was performed using 50 mM of Tris-HCl (pH=7.4) (total amount: 250 μL) (buffer composition: containing […] of MgCl2 and 0.1% BSA), and incubation was performed at room temperature (25° C.) for one hour. After incubation, suck filtration was immediately performed and reaction was completed when the membrane sample was collected on a glass fiber filter fitted with the microplate. After the filter was washed with an ice-cold Tris-HCl buffer (50 mM Tris-HCl, 10 mM MgCl2, pH 7.4), radioactivity measurement was performed. Nonspecific binding was determined using nonradioactive-labeled AVP (1 μM).

[2] = target: human vasopressin V1a receptor (Homo sapiens, UniProt P37288); assay: Receptor binding study, [3H]AVP displacement on CHO cell membranes, human V1a; conditions: [3H]AVP displacement, CHO cell membrane, 25° C., one hour; read-out: Human V1a Ki
Experimental: as §1
Assay was performed using 50 mM of Tris-HCl (pH=7.4) (total amount: 250 μL) (buffer composition: containing […] of MgCl2 and 0.1% BSA), and incubation was performed at room temperature (25° C.) for one hour. After incubation, suck filtration was immediately performed and reaction was completed when the membrane sample was collected on a glass fiber filter fitted with the microplate. After the filter was washed with an ice-cold Tris-HCl buffer (50 mM Tris-HCl, 10 mM MgCl2, pH 7.4), radioactivity measurement was performed. Nonspecific binding was determined using nonradioactive-labeled AVP (1 μM).

human vasopressin V2 receptor, sequence (P30518 whole entry): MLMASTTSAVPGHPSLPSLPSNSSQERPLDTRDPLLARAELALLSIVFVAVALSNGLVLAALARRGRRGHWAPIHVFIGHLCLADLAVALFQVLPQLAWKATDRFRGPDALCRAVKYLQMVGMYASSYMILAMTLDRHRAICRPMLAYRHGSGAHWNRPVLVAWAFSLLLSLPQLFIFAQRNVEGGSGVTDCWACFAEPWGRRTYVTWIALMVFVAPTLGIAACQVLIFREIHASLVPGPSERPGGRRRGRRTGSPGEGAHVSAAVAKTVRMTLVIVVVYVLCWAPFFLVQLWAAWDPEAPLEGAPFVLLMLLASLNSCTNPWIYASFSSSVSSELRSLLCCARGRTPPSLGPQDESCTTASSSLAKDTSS
human vasopressin V1a receptor, sequence (P37288 whole entry): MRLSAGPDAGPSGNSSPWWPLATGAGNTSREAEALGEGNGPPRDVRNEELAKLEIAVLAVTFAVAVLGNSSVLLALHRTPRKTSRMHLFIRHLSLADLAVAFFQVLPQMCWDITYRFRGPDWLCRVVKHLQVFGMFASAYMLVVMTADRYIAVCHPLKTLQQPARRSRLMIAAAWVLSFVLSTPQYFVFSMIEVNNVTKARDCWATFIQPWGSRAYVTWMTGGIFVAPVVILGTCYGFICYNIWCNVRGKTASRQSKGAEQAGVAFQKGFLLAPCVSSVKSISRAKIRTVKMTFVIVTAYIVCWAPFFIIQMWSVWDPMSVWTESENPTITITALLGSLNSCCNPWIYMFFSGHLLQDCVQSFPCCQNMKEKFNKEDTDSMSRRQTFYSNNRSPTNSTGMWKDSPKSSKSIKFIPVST

| Ki [1] [nM] | Ki [2] [nM] | SMILES |
| --- | --- | --- |
| 1.7 | 0.39 | COc1cc(C(=O)N2CCC(C)Nc3ccccc32)ccc1-c1ccc2[nH]ccc2c1 (stereo not drawn) [Example 1, 1-[4-(1H-indol-5-yl)-3-methoxybenzoyl]-4-methyl-2,3,4,5-tetrahydro-1H-1,5-benzodiazepine] |
| 4.4 | 0.31 | COc1cc(C(=O)N2CCC(C)(C)Nc3ccccc32)ccc1-c1ccc2[nH]ccc2c1 [Example 2, 1-[4-(1H-indol-5-yl)-3-methoxybenzoyl]-4,4-dimethyl-2,3,4,5-tetrahydro-1H-1,5-benzodiazepine] |
| 22 | 0.18 | CC(=O)Nc1cc(C(=O)N2CCC(C)Nc3ccccc32)ccc1-c1ccc2[nH]ccc2c1 (stereo not drawn) [Example 3, N-[2-(1H-indol-5-yl)-5-[(4-methyl-2,3,4,5-tetrahydro-1H-1,5-benzodiazepin-1-yl)carbonyl]phenyl]acetamide] |
| 15 | 0.38 | CC(=O)Nc1cc(C(=O)N2CCC(C(C)C)Nc3ccccc32)ccc1-c1ccc2[nH]ccc2c1 (stereo not drawn) [Example 7, N-[2-(1H-indol-5-yl)-5-[(4-isopropyl-2,3,4,5-tetrahydro-1H-1,5-benzodiazepin-1-yl)carbonyl]phenyl]acetamide] |
| 15 | 0.16 | CCC1CCN(C(=O)c2ccc(-c3ccc4[nH]ccc4c3)c(NC(C)=O)c2)c2ccccc2N1 (stereo not drawn) [Example 8, N-[5-[(4-ethyl-2,3,4,5-tetrahydro-1H-1,5-benzodiazepin-1-yl)carbonyl]-2-(1H-indol-5-yl)-phenyl]acetamide] |
| 63 | 0.33 | CC(=O)Nc1cc(C(=O)N2CC[C@@H](C)Nc3ccccc32)ccc1-c1ccc2[nH]ccc2c1 [Example 16, N-[2-(1H-indol-5-yl)-5-[[(4R)-4-methyl-2,3,4,5-tetrahydro-1H-1,5-benzodiazepin-1-yl]carbonyl]phenyl]acetamide] |
| 11 | 0.13 | CC(=O)Nc1cc(C(=O)N2CC[C@H](C)Nc3ccccc32)ccc1-c1ccc2[nH]ccc2c1 [Example 17, N-[2-(1H-indol-5-yl)-5-[[(4S)-4-methyl-2,3,4,5-tetrahydro-1H-1,5-benzodiazepin-1-yl]carbonyl]phenyl]acetamide] |
| 17 | 0.091 | CC1CCN(C(=O)c2ccc(-c3ccc4[nH]ccc4c3)c(OCCCN)c2)c2ccccc2N1 (stereo not drawn) [Example 30, 3-[2-(1H-indol-5-yl)-5-[(4-methyl-2,3,4,5-tetrahydro-1H-1,5-benzodiazepin-1-yl)carbonyl]phenoxy]-1-propaneamine] |
| 11 | 0.23 | CC1CCN(C(=O)c2ccc(-c3ccc4[nH]ccc4c3)c(OCCCCN)c2)c2ccccc2N1 (stereo not drawn) [Example 36, 4-[2-(1H-indol-5-yl)-5-[(4-methyl-2,3,4,5-tetrahydro-1H-1,5-benzodiazepin-1-yl)carbonyl]phenoxy]-1-butaneamine] |
| 4.3 | 0.24 | CC1CCN(C(=O)c2ccc(-c3ccc4[nH]ccc4c3)c(OCCCCCN)c2)c2ccccc2N1 (stereo not drawn) [Example 37, 5-[2-(1H-indol-5-yl)-5-[(4-methyl-2,3,4,5-tetrahydro-1H-1,5-benzodiazepin-1-yl)carbonyl]phenoxy]-1-pentaneamine] |
| 11 | 0.086 | C[C@H]1CCN(C(=O)c2ccc(-c3ccc4[nH]ccc4c3)c(OCCCN)c2)c2ccccc2N1 [Example 38, 3-[2-(1H-indol-5-yl)-5-[[(4S)-4-methyl-2,3,4,5-tetrahydro-1H-1,5-benzodiazepin-1-yl]carbonyl]phenoxy]propylamine] |
| 5.2 | 0.22 | CC1CCN(C(=O)c2ccc(-c3ccc4[nH]ccc4c3)c(OCCCCCCN)c2)c2ccccc2N1 (stereo not drawn) [Example 39, 6-[2-(1H-indol-5-yl)-5-[(4-methyl-2,3,4,5-tetrahydro-1H-1,5-benzodiazepin-1-yl)carbonyl]phenoxy]hexylamine] |
| 34 | 0.19 | CC1CCN(C(=O)c2ccc(-c3ccc4[nH]ccc4c3)c(OCCCN(C)C)c2)c2ccccc2N1 (stereo not drawn) [Example 42, 3-[2-(1H-indol-5-yl)-5-[(4-methyl-2,3,4,5-tetrahydro-1H-1,5-benzodiazepin-1-yl)carbonyl]phenoxy]-N,N-dimethyl-1-propaneamine] |
| 1.1 | 0.24 | CC1CCN(C(=O)c2ccc(-c3ccc4[nH]ccc4c3)c(OCCN3CCOCC3)c2)c2ccccc2N1 (stereo not drawn) [Example 46, 2-(1H-indol-5-yl)-5-[(4-methyl-2,3,4,5-tetrahydro-1H-1,5-benzodiazepin-1-yl)carbonyl]phenyl 2-(4-morpholinyl)ethyl ether] |
| 1.2 | 0.39 | COc1cc(C(=O)N2CC[C@H](C)Nc3ccccc32)ccc1-c1ccc2[nH]ccc2c1 [Example 47, (4S)-1-[4-(1H-indol-5-yl)-3-methoxybenzoyl]-4-methyl-2,3,4,5-tetrahydro-1H-1,5-benzodiazepine] |
| 1.5 | 0.23 | C[C@H]1CCN(C(=O)c2ccc(-c3ccc4[nH]ccc4c3)c(NS(C)(=O)=O)c2)c2ccccc2N1 [Example 48, N-[2-(1H-indol-5-yl)-5-[[(4S)-4-methyl-2,3,4,5-tetrahydro-1H-1,5-benzodiazepin-1-yl]carbonyl]phenyl]methanesulfonamide] |
| 12 | 0.079 | CNCCCOc1cc(C(=O)N2CC[C@H](C)Nc3ccccc32)ccc1-c1ccc2[nH]ccc2c1 [Example 51, N-[3-[2-(1H-indol-5-yl)-5-[[(4S)-4-methyl-2,3,4,5-tetrahydro-1H-1,5-benzodiazepin-1-yl]carbonyl]phenoxy]propyl]-N-methylamine] |
| 731 | 0.41 | C[C@H]1CCN(C(=O)c2ccc(-c3ccc(N)cc3)c(OCCCN)c2)c2ccccc2N1 [Example 54, 2′-(3-aminopropoxy)-4′-[[(4S)-4-methyl-2,3,4,5-tetrahydro-1H-1,5-benzodiazepin-1-yl]carbonyl][1,1′-biphenyl]-4-amine] |
| 25 | 0.31 | C[C@@H]1CCN(C(=O)c2ccc(-c3ccc4[nH]ccc4c3)c(OCCCN)c2)c2ccccc2N1 [Example 55, 3-[2-(1H-indol-5-yl)-5-[[(4R)-4-methyl-2,3,4,5-tetrahydro-1H-1,5-benzodiazepin-1-yl]carbonyl]phenoxy]propylamine] |
| 0.89 | 0.23 | C[C@H]1CCN(C(=O)c2ccc(-c3ccc4[nH]ccc4c3)c(OCCN3CCOCC3)c2)c2ccccc2N1 [Example 59, (4S)-1-[4-(1H-indol-5-yl)-3-[2-(4-morpholinyl)ethoxy]benzoyl]-4-methyl-2,3,4,5-tetrahydro-1H-1,5-benzodiazepine] |
| 84 | 0.27 | C[C@H]1CCN(C(=O)c2ccc(-c3ccc(N)cc3)c(OCCN3CCOCC3)c2)c2ccccc2N1 [Example 60, 4′-[[(4S)-4-methyl-2,3,4,5-tetrahydro-1H-1,5-benzodiazepin-1-yl]carbonyl]-2′-[2-(4-morpholinyl)ethoxy][1,1′-biphenyl]-4-amine] |
| 1.9 | 0.22 | C[C@H]1CCN(C(=O)c2ccc(-c3ccc4[nH]ccc4c3)c(OCCCN3CCOCC3)c2)c2ccccc2N1 [Example 61, (4S)-1-[4-(1H-indol-5-yl)-3-[3-(4-morpholinyl)propoxy]benzoyl]-4-methyl-2,3,4,5-tetrahydro-1H-1,5-benzodiazepine] |
| 143 |  | COc1ccc(S(=O)(=O)N2c3ccc(Cl)cc3[C@](O)(c3ccccc3Cl)[C@@H]2C(=O)N2CCC[C@H]2C(N)=O)cc1OC [SR49059, reference compound] |
